Source: patent publication US5773573A, “HIV peptides” (priority 1994, dated 1998)
Residues, ends and D or L forms follow the SMILES beside them.

Key:
[1] = tested on: autologous PHA T cell blasts; assay: Cytotoxicity Assay (51Cr release) of peptide-induced short-term PBMC cultures against autologous targets; assay type: cell-based, human; conditions: for autoreactive response (autocytotoxic, 51Cr release): peptide stimulant 100 ng/ml 4-8 hours
Experimental: (§1) Peripheral Blood Mononuclear Cells (PBMC) were isolated from 8 HIV seronegative individuals who volunteered as donors for the study. […] PBMC (10^6 /ml) from the each of the donors were incubated in the presence of VHP1 or control peptide at 100 ng/ml for 4-8 hours to produce Effector Cells. Irradiated autologous PBMC without VHP1 stimulation served as controls.
(§2) VHP1 induced short-term cultures of autoreactive T cells (Effector Cells) were assayed for cytotoxic activity against autologous PHA T cell blasts stimulated with 5 μg/ml PHA for 4-5 days at a concentration of 10^4 cells/well in the absence of either control or VHP1 peptide (Target Cells). 1-2×10^6 Target Cells were labeled with […] of ^51 Cr in 0.3 ml of medium for 1 hour at 37° C. Target cells were washed 3× in medium, diluted to 10^5 or 10^4 cells/ml and […] of cell suspension added to each well of a V-bottomed 96-well microtitre plate. Effector Cells were added to the Target Cells at Effector:Target (E:T) ratios from 50:1 to 6.25:1. Cultures were incubated for 4 hours at 37° C. and supernatants were harvested and counted for ^51 Cr release. Percent cytotoxicity is calculated using the formula : […] (experimental release-spontaneous release)/(maximum release-spontaneous release). Spontaneous release and maximum release were determined by incubating target cells in medium or 1.0% Triton ×-100 respectively. Results where calculated as means ± Standard Deviations (SD) of triplicate cultures and a positive result was scored above 20% specific lysis. The cytotoxicity assay was repeated for allogeneic Target cells from donors (Target-1, Target-2 and Target-3) and the percent specific lysis scored at an Effector:Target ratio of 10:1.

[2] = tested on: allogeneic PHA activated T cell Targets; assay: Cytotoxicity Assay (51Cr release) of VHP1-induced Effectors against allogeneic targets; assay type: cell-based, human
Experimental: as §1, §2
To establish the MHC specificity of the cytotoxic cells stimulated by VHP1, further Cytotoxicity Assays with allogeneic PHA activated T cell Targets with different MHC phenotypes were then performed. The Effectors were derived from short term cultures of PBMC from donors of either MHC B8 or B35 (trigger+) incubated with VHP1 for 4-8 hours. The Target Cells were from donors with either B8 B35 (trigger+) or B27(Trigger-) MHC phenotype. Target PBMC incubated with radioactive ^51 Cr for one hour before being mixed with Effectors. Effector Cells were mixed with radiolabelled Target Cells and incubated for 4 hours and lysis was measured by release of radioactive ^51 Cr.
The measurement of percent specific lysis by ^51 Cr release at an Effector to Target Ratio of 10:1.

[3] = short term cultures of PBMC from donors positive for B8 or B35 (trigger+)

**Q.** What does the source list for `CC(C)C[C@H](N)C(=O)N[C@@H](CCC(=O)O)C(=O)N[C@@H](CC(=O)O)C(=O)N[C@@H](CCCNC(=N)N)C(=O)N[C@@H](CCCNC(=N)N)C(=O)N[C@@H](C)C(=O)N[C@@H](C)C(=O)N[C@H](C(=O)N[C@@H](CC(=O)O)C(=O)N[C@H](C(=O)N[C@H](C(=O)N[C@@H](CS)C(=O)N[C@@H](CCCNC(=N)N)C(=O)N[C@@H](C)C(=O)O)C(C)C)[C@@H](C)O)C(C)C` [Control, NH2 LeuGluAspArgArgAlaAlaValAspThrValCysArgAlaCOOH] (H-LEDRRAAVDTVCRA-OH)?
**A.** autoreactive response (autocytotoxic, 51Cr release) ([1]; PBMC of donor eight (Trigger+)): - (a positive result was scored above 20% specific lysis); autoreactive response (autocytotoxic, 51Cr release) ([1]; PBMC of donor five (Trigger+)): - (a positive result was scored above 20% specific lysis); autoreactive response (autocytotoxic, 51Cr release) ([1]; PBMC of donor four (Trigger-)): - (a positive result was scored above 20% specific lysis); autoreactive response (autocytotoxic, 51Cr release) ([1]; PBMC of donor nine (Trigger-)): - (a positive result was scored above 20% specific lysis); autoreactive response (autocytotoxic, 51Cr release) ([1]; PBMC of donor one (Trigger-)): - (a positive result was scored above 20% specific lysis); autoreactive response (autocytotoxic, 51Cr release) ([1]; PBMC of donor seven (Trigger+)): - (a positive result was scored above 20% specific lysis); autoreactive response (autocytotoxic, 51Cr release) ([1]; PBMC of donor six (Trigger+)): - (a positive result was scored above 20% specific lysis); autoreactive response (autocytotoxic, 51Cr release) ([1]; PBMC of donor two (Trigger-)): - (a positive result was scored above 20% specific lysis); autocytotoxic responses against activated autologous T cell targets [1, 3]: did not produce significant levels

**Q.** `CC(C)[C@H](NC(=O)[C@H](CCCNC(=N)N)NC(=O)[C@H](CCCNC(=N)N)NC(=O)[C@H](CCCCN)NC(=O)[C@H](C)NC(=O)[C@H](CCCCN)NC(=O)[C@@H](N)[C@@H](C)O)C(=O)N[C@H](C(=O)N[C@@H](CCC(=O)O)C(=O)N[C@@H](CCCNC(=N)N)C(=O)N[C@@H](CCC(=O)O)C(=O)N[C@@H](CCCCN)C(=O)N[C@@H](CCCNC(=N)N)C(=O)O)C(C)C` [VHP1, NH2 ThrLysAlaLysArgArgValValGluArgGluLysArgCOOH] (H-TKAKRRVVEREKR-OH) was tested. Which “percent specific lysis by 51Cr release” value ([2]; VHP1-induced Effectors JMC-B8, Target1-B8, Effector to Target Ratio 10:1) did it give?
**A.** 30%

**Q.** And the “percent specific lysis by 51Cr release” value ([2]; VHP1-induced Effectors JMC-B8, Target2-B35, Effector to Target Ratio 10:1)?
**A.** 30%

**Q.** And the “percent specific lysis by 51Cr release” value ([2]; VHP1-induced Effectors JMC-B8, Target3-B27, Effector to Target Ratio 10:1)?
**A.** 7%

**Q.** What about the “percent specific lysis by 51Cr release” value ([2]; VHP1-induced Effectors SW-B35, Target1-B8, Effector to Target Ratio 10:1) of the same molecule?
**A.** 9%

**Q.** And the “percent specific lysis by 51Cr release” value ([2]; VHP1-induced Effectors SW-B35, Target2-B35, Effector to Target Ratio 10:1)?
**A.** 10%

**Q.** What about the “percent specific lysis by 51Cr release” value ([2]; VHP1-induced Effectors SW-B35, Target3-B27, Effector to Target Ratio 10:1) of the same molecule?
**A.** 2%

**Q.** What about the “percent specific lysis by 51Cr release” value ([2]; VHP1-induced Effectors WW-B35, Target1-B8, Effector to Target Ratio 10:1) of the same molecule?
**A.** 30%

**Q.** And the “percent specific lysis by 51Cr release” value ([2]; VHP1-induced Effectors WW-B35, Target2-B35, Effector to Target Ratio 10:1)?
**A.** 32%

**Q.** What about the “percent specific lysis by 51Cr release” value ([2]; VHP1-induced Effectors WW-B35, Target3-B27, Effector to Target Ratio 10:1) of the same molecule?
**A.** 14%

**Q.** And the “autoreactive response (autocytotoxic, 51Cr release)” value (“autoreactive response” for short) ([1]; PBMC of donor eight (Trigger+))?
**A.** + (a positive result was scored above 20% specific lysis)

**Q.** What about the “autoreactive response” value ([1]; PBMC of donor five (Trigger+)) of the same molecule?
**A.** + (a positive result was scored above 20% specific lysis)

**Q.** And the “autoreactive response” value ([1]; PBMC of donor four (Trigger-))?
**A.** - (a positive result was scored above 20% specific lysis)

**Q.** What about the “autoreactive response” value ([1]; PBMC of donor nine (Trigger-)) of the same molecule?
**A.** - (a positive result was scored above 20% specific lysis)

**Q.** And the “autoreactive response” value ([1]; PBMC of donor one (Trigger-))?
**A.** - (a positive result was scored above 20% specific lysis)

**Q.** And the “autoreactive response” value ([1]; PBMC of donor seven (Trigger+))?
**A.** + (a positive result was scored above 20% specific lysis)

**Q.** What about the “autoreactive response” value ([1]; PBMC of donor six (Trigger+)) of the same molecule?
**A.** + (a positive result was scored above 20% specific lysis)

**Q.** And the “autoreactive response” value ([1]; PBMC of donor two (Trigger-))?
**A.** - (a positive result was scored above 20% specific lysis)

**Q.** What about the “autocytotoxic responses against activated autologous T cell targets” value ([1]; short term cultures of PBMC from donors negative for B8 or B35 (trigger-)) of the same molecule?
**A.** did not produce significant levels

**Q.** And the “autocytotoxic responses against activated autologous T cell targets” value [1, 3]?
**A.** significant autocytoxic responses
